# In patent US11999716B2, “WDR5 inhibitors and modulators” (priority 2018, dated 2024):
# System: MV4:11 human cancer cell lines
# Experiment: Cellular viability / anti-proliferative activity, CellTiter-Glo, 5 day protocol
# Format: cell-based
# Conditions: Homo sapiens, MV4-11, 120 h, MV4:11 cells; 5 day incubation; CellTiter-Glo; mean of minimum two replicates; read-out: GI50 on cellular proliferation of MV4:11 human cancer cell lines
# Experimental: Cellular Viability of Human Tumor Cell Lines
# Anti proliferative activity using MLL-harboring cell lines. […] Viability assays are performed by dispensing 200 cells at 7200 cells/mL into each well of an opaque 384-well plate and adding compounds at the indicated concentrations in a final volume of 32 μL and a final concentration of DMSO of 0.3% for all samples. A certain range of compound concentrations is made through a series of 2-fold dilutions starting 30 μM at the highest, total 22 dilutions. After a set incubation period, 5 day protocol, the viability of cells in each well is assessed using the CellTiter-Glo assay (Promega), read on a 96 Microplane Luminometer (Cytation 3, BioTek). Serial dilutions of each cell type are performed in all assays to generate standard curves and the final densities of cells are determined within the dynamic range of the instrument. GI50 values are calculated based on XLfit software (IDBS, Guildford, UK) with Sigmoidal Dose-Response Model. Each compound is tested in minimum of two replicates. Data are expressed as mean.
row,GI50 [nM],Compound
1,> 938,"CCn1cc(-c2cc(Cn3ccn(C4CC4)c3=N)cc3c2CCN(Cc2cc(OC)ccn2)C3=O)cn1 [Example 50, 7-((3-Cyclopropyl-2-imino-2,3-dihydro-1H-imidazol-1-yl)methyl)-5-(1-ethyl-1H-pyrazol-4-yl)-2-((4-methoxypyridin-2-yl)methyl)-3,4-dihydroisoquinolin-1(2H)-one]"
2,< 50,"Cc1ccnc(CN2CCc3c(cc(Cn4ccn(C5CC5)c4=N)cc3-c3cn(C)nc3C(F)(F)F)C2=O)c1 [Example 51, 7-((3-Cyclopropyl-2-imino-2,3-dihydro-1H-imidazol-1-yl)methyl)-5-(1-methyl-3-(trifluoromethyl)-1H-pyrazol-4-yl)-2-((4-methylpyridin-2-yl)methyl)-3,4-dihydroisoquinolin-1(2H)-one]"
3,< 50,"COc1ccnc(CN2CCc3c(cc(Cn4ccn(C)c4=N)cc3-c3ccc(F)cc3C)C2=O)c1 [Example 52, 5-(4-fluoro-2-methylphenyl)-7-((2-imino-3-methyl-2,3-dihydro-1H-imidazol-1-yl)methyl)-2-((4-methoxypyridin-2-yl)methyl)-3,4-dihydroisoquinolin-1(2H)-one]"
4,< 50,"Cc1ccnc(CN2CCc3c(cc(Cn4ccn(C)c4=N)cc3-c3cn(C)nc3C(F)(F)F)C2=O)c1 [Example 53, 7-((2-Imino-3-methyl-2,3-dihydro-1H-imidazol-1-yl)methyl)-5-(1-methyl-3-(trifluoromethyl)-1H-pyrazol-4-yl)-2-((4-methylpyridin-2-yl)methyl)-3,4-dihydroisoquinolin-1(2H)-one]"
5,880,"COc1ccnc(CN2CCc3c(cc(Cn4ccn(C)c4=N)cc3C3CC3)C2=O)c1 [Example 54, 5-Cyclopropyl-7-((2-imino-3-methyl-2,3-dihydro-1H-imidazol-1-yl)methyl)-2-((4-methoxypyridin-2-yl)methyl)-3,4-dihydroisoquinolin-1(2H)-one]"
6,< 50,"CCn1cc(-c2cc(CN3CCN(C)C3=N)cc3c2CCN(Cc2cc(OC)ccn2)C3=O)c(C(F)(F)F)n1 [Example 55, 5-(1-Ethyl-3-(trifluoromethyl)-1H-pyrazol-4-yl)-7-((2-imino-3-methylimidazolidin-1-yl)methyl)-2-((4-methoxypyridin-2-yl)methyl)-3,4-dihydroisoquinolin-1(2H)-one]"
7,870,"CCn1cc(-c2cc(Cn3cc4n(c3=N)CCC4)cc3c2CCN(Cc2cc(OC)ccn2)C3=O)c(C(F)(F)F)n1 [Example 56, 5-(1-Ethyl-3-(trifluoromethyl)-1H-pyrazol-4-yl)-7-((3-imino-6,7-dihydro-3H-pyrrolo[1,2-c]imidazol-2(5H)-yl)methyl)-2-((4-methoxypyridin-2-yl)methyl)-3,4-dihydroisoquinolin-1(2H)-one]"
8,50,"CCn1cc(-c2cc(Cn3ccn(C)c3=N)cc3c2CCN(Cc2cc(OC)ccn2)C3=O)c(C(F)(F)F)n1 [Example 57, 5-(1-Ethyl-3-(trifluoromethyl)-1H-pyrazol-4-yl)-7-((2-imino-3-methyl-2,3-dihydro-1H-imidazol-1-yl)methyl)-2-((4-methoxypyridin-2-yl)methyl)-3,4-dihydroisoquinolin-1(2H)-one]"
9,54,"CCn1cc(-c2cc(Cn3ccn(C4CC4)c3=N)cc3c2CCN(Cc2cc(OC)ccn2)C3=O)c(C(F)(F)F)n1 [Example 58, 7-((3-Cyclopropyl-2-imino-2,3-dihydro-1H-imidazol-1-yl)methyl)-5-(1-ethyl-3-(trifluoromethyl)-1H-pyrazol-4-yl)-2-((4-methoxypyridin-2-yl)methyl)-3,4-dihydroisoquinolin-1(2H)-one]"
10,274,"COc1cc(CN2CCc3c(cc(Cn4ccn(C)c4=N)cc3-c3ncc(F)cc3C)C2=O)cc(OC)c1 [Example 59, 2-(3,5-Dimethoxybenzyl)-5-(5-fluoro-3-methylpyridin-2-yl)-7-((2-imino-3-methyl-2,3-dihydro-1H-imidazol-1-yl)methyl)-3,4-dihydroisoquinolin-1(2H)-one]"
11,> 938,"COc1ccnc(CN2CCc3c(cc(Cn4ccn(C)c4=N)cc3-c3cccnc3C)C2=O)c1 [Example 60, 7-((2-Imino-3-methyl-2,3-dihydro-1H-imidazol-1-yl)methyl)-2-((4-methoxypyridin-2-yl)methyl)-5-(2-methylpyridin-3-yl)-3,4-dihydroisoquinolin-1(2H)-one]"
12,< 50,"COc1ccnc(CN2CCc3c(cc(Cn4ccn(C(F)F)c4=N)cc3-c3cn(C)nc3C(F)(F)F)C2=O)c1 [Example 61, 7-((3-(Difluoromethyl)-2-imino-2,3-dihydro-1H-imidazol-1-yl)methyl)-2-((4-methoxypyridin-2-yl)methyl)-5-(1-methyl-3-(trifluoromethyl)-1H-pyrazol-4-yl)-3,4-dihydroisoquinolin-1(2H)-one]"
13,572,"COc1ccnc(CN2CCc3c(cc(Cn4cc5n(c4=N)CCC5)cc3-c3cn(C)nc3C(F)(F)F)C2=O)c1 [Example 62, 7-((3-Imino-6,7-dihydro-3H-pyrrolo[1,2-c]imidazol-2(51/)-yl)methyl)-2-((4-methoxypyridin-2-yl)methyl)-5-(1-methyl-3-(trifluoromethyl)-1H-pyrazol-4-yl)-3,4-dihydroisoquinolin-1(2H)-one]"
14,274,"CCn1cc(-c2cc(Cn3ccn(C)c3=N)cc3c2CCN(Cc2cc(OC)ccn2)C3=O)c(C)n1 [Example 63, 5-(1-Ethyl-3-methyl-1H-pyrazol-4-yl)-7-((2-imino-3-methyl-2,3-dihydro-1H-imidazol-1-yl)methyl)-2-((4-methoxypyridin-2-yl)methyl)-3,4-dihydroisoquinolin-1(2H)-one]"
15,> 938,"COc1cc(CN2CCc3c(cc(Cn4ccn(C)c4=N)cc3-c3c(C)nn(C)c3C)C2=O)cc(OC)c1 [Example 64, 2-(3,5-Dimethoxybenzyl)-7-((2-imino-3-methyl-2,3-dihydro-1H-imidazol-1-yl)methyl)-5-(1,3,5-trimethyl-1H-pyrazol-4-yl)-3,4-dihydroisoquinolin-1(2H)-one]"
16,< 50,"COc1ccnc(CN2CCc3c(cc(Cn4ccnc4N)cc3-c3cn(C)nc3C(F)(F)F)C2=O)c1 [Example 65, 7-((2-Amino-1H-imidazol-1-yl)methyl)-2-((4-methoxypyridin-2-yl)methyl)-5-(1-methyl-3-(trifluoromethyl)-1H-pyrazol-4-yl)-3,4-dihydroisoquinolin-1(2H)-one]"
17,< 50,"CCn1cc(-c2cc(Cn3ccn(C)c3=N)cc3c2CCN([C@@H](C)c2cc(OC)ccn2)C3=O)c(C(F)(F)F)n1 [Example 66, (S)-5-(1-Ethyl-3-(trifluoromethyl)-1H-pyrazol-4-yl)-7-((2-imino-3-methyl-2,3-dihydro-1H-imidazol-1-yl)methyl)-2-(1-(4-methoxypyridin-2-yl)ethyl)-3,4-dihydroisoquinolin-1(2H)-one]"
18,< 50,"CCn1cc(-c2cc(Cn3ccn(C(F)F)c3=N)cc3c2CCN([C@@H](C)c2cc(OC)ccn2)C3=O)c(C(F)(F)F)n1 [Example 67, (S)-7-((3-(Difluoromethyl)-2-imino-2,3-dihydro-1H-imidazol-1-yl)methyl)-5-(1-ethyl-3-(trifluoromethyl)-1H-pyrazol-4-yl)-2-(1-(4-methoxypyridin-2-yl)ethyl)-3,4-dihydroisoquinolin-1(2H)-one]"
